# Several values for one entry are separate records, joined by “and”; a condition that tells them apart may be missing. Identical values can stand only once. Like-named read-outs stand apart in the source and are kept apart here. Marks after values point to notes of the source that are not given here.
# Key:
# [1] = Protein binding via Rapid Equilibrium Dialysis - plasma; assay type: in vitro ADME; details: Rat (SD) plasma, 2 μM
# Source text: (§1) Table 20 provides results of in vitro and in vivo pharmacokinetics performed for each of the represented compounds.
# [2] = Turbidity-based aqueous solubility; assay type: physicochemical; details: aqueous solution (composition not given), kinetic from dmso stock, read-out: highest soluble concentration
# Source text: as §1
# [3] = In vivo PK, IV dose, Terminal - brain (brain availability); parameters: species or system Rat (SD); details: for Brain concentration, mean / Brain concentration, individual animal: IV 1 mg/kg
# Description: Table 3 and FIG. 5 depict the brain availability of ADG I-204, ADG I-205, ADG I-206, and ADG I-207 after IV administration of 1 mg/kg dose.
# [4] = Microsomal stability assay (half-life), mouse; assay type: in vitro ADME; details: Mouse (CD1) microsomes, read-out: Microsomal stability T1/2
# Source text: as §1
# H3K9ac = experiment: Western blot, differentiated CAD cell lysates, H3K9ac levels; assay type: cell-based; details: differentiated CAD cells, DMSO = 100.00%
# Source text: as §1
# [5] = In vivo PK, IV dose, plasma; parameters: species or system Rat (SD); details: for Plasma concentration, mean / Plasma concentration, individual animal: IV 1 mg/kg
# Source text: as §1
# (§2) Tables 4 and 5 depict the summary of rat plasma sample concentrations after administration of ADG I-204. FIG. 6 provides a summary of rat plasma and brain concentrations.
# [6] = Microsomal stability assay (half-life), rat; assay type: in vitro ADME; details: Rat (SD) microsomes, read-out: Microsomal stability T1/2
# Source text: as §1
# [7] = Microsomal stability assay (half-life), human; assay type: in vitro ADME; details: Human microsomes, read-out: Microsomal stability T1/2
# Source text: as §1
# [8] = In vivo PK, oral gavage, plasma; parameters: species or system Rat (SD); details: Rat, PO 5 mg/kg, 24.0 hr; BQL limit 1.00 ng/mL; listed as AUG I-207, 5 mg/kg
# [9] = In vivo PK, oral gavage, plasma; parameters: species or system Rat (SD); details: for Plasma concentration, mean: Rat (SD), BQL = below quantitation limit (1.00 ng/mL); for Plasma concentration, mean / Plasma concentration, individual animal: PO 5 mg/kg
# Source text: as §1, §2
compound,measurement,setting,value
"O=C(Nc1ccc2nc(-c3cccs3)c(-c3cccs3)nc2c1)NC12CC3CC(CC(C3)C1)C2 [ADG-207, 1-((1S,3s)-adamantan-1-yl)-3-(2,3-di(thiophen-2-yl)quinoxalin-6-yl)urea]","Protein binding, plasma: % Protein free",[1],0.9428 % Protein free
same,solubility,[2],5 µM
same,"Brain concentration, mean","[3]; Rat (SD), 1 hr, listed as ADG I-207, 1 mg/kg",51 ng/g
same,"Brain concentration, mean","[3]; Rat (SD), 4 hr, BQL limit 10.0 ng/g (204, 206), 20.0 ng/g (205, 207)",BQL
same,"Brain concentration, mean","[3]; Rat (SD), 8 hr, BQL limit 10.0 ng/g (204, 206), 20.0 ng/g (205, 207)",BQL
same,"Brain concentration, mean","[3]; Rat (SD), 24 hr, BQL limit 10.0 ng/g (204, 206), 20.0 ng/g (205, 207)",BQL
same,"Brain concentration, individual animal","[3]; Rat, 0.0830 hr, third animal received only 70% of the test article, listed as ADG I-207, 1 mg/kg",204 ng/g and 253 ng/g and 119*** ng/g
same,"Brain concentration, individual animal","[3]; Rat, 1.00 hr, listed as ADG I-207, 1 mg/kg",39.8 ng/g and 58.9 ng/g
same,"Brain concentration, individual animal","[3]; Rat, 4.00 hr, BQL limit 10.0 ng/g (204, 206), 20.0 ng/g (205, 207)",BQL
same,"Brain concentration, individual animal","[3]; Rat, 8.00 hr, BQL limit 10.0 ng/g (204, 206), 20.0 ng/g (205, 207)",BQL
same,"Brain concentration, individual animal","[3]; Rat, 24.0 hr, BQL limit 10.0 ng/g (204, 206), 20.0 ng/g (205, 207)",BQL
same,concentration at 0.083 h,"[3]; SD, rat, brain, iv, 1 mg/kg, Rat (SD), 0.083 hr",192 ng/g
same,concentration at 1 h,"[3]; SD, rat, brain, iv, 1 mg/kg, Rat (SD), 1 hr, read-out: Brain concentration, mean",50.8 ng/g
same,concentration at 1 h,"[3]; SD, rat, brain, iv, 1 mg/kg, Rat, 1.00 hr, read-out: Brain concentration, individual animal",53.6 ng/g
same,half-life at 2 μM,[4],5.5 min
same,H3K9ac levels normalized to H3 and DMSO control,H3K9ac; 1 uM,57.45%
same,H3K9ac levels normalized to H3 and DMSO control,H3K9ac; 5 uM,63.69%
same,H3K9ac levels normalized to H3 and DMSO control,H3K9ac; 10 uM,72.97%
same,H3K9ac levels normalized to H3 and DMSO control,H3K9ac; 20 uM,70.92%
same,H3K9ac levels normalized to H3 and DMSO control,H3K9ac; 50 uM,116.85%
same,H3K9ac levels normalized to H3 and DMSO control,H3K9ac; 100 uM,107.80%
same,"Plasma concentration, mean","[5]; Rat (SD), 0.083 hr, terminal, listed as ADG I-207, 1 mg/kg",1660*** ng/mL
same,"Plasma concentration, mean","[5]; Rat (SD), 1 hr, terminal, listed as ADG I-207, 1 mg/kg",55 ng/mL
same,"Plasma concentration, mean","[5]; Rat (SD), 4 hr, terminal, listed as ADG I-207, 1 mg/kg",1 ng/mL
same,"Plasma concentration, mean","[5]; Rat (SD), 8 hr, terminal, listed as ADG I-207, 1 mg/kg",1 ng/mL
same,"Plasma concentration, mean","[5]; Rat (SD), 24 hr, terminal, BQL limit 1.00 ng/mL (ADG I-205: 2.00 ng/mL)",BQL
same,"Plasma concentration, individual animal","[5]; Rat, 0.0830 hr, terminal, third animal received only 70% of the test article, listed as ADG I-207, 1 mg/kg",1640 ng/mL and 2230 ng/mL and 1110 ng/mL
same,"Plasma concentration, individual animal","[5]; Rat, 0.500 hr, not terminal (animals 4, 5 and 6), listed as ADG I-207, 1 mg/kg",1560** ng/mL and 93.3 ng/mL and 170 ng/mL
same,"Plasma concentration, individual animal","[5]; Rat, 1.00 hr, terminal, listed as ADG I-207, 1 mg/kg",70.3 ng/mL and 27.3 ng/mL and 65.8 ng/mL
same,"Plasma concentration, individual animal","[5]; Rat, 4.00 hr, terminal, BQL limit 1.00 ng/mL (ADG I-205: 2.00 ng/mL), listed as ADG I-207, 1 mg/kg",BQL
same,"Plasma concentration, individual animal","[5]; Rat, 8.00 hr, terminal, BQL limit 1.00 ng/mL (ADG I-205: 2.00 ng/mL), listed as ADG I-207, 1 mg/kg",BQL and 1.09 ng/mL
same,"Plasma concentration, individual animal","[5]; Rat, 24.0 hr, terminal, BQL limit 1.00 ng/mL (ADG I-205: 2.00 ng/mL)",BQL
same,concentration at 0.083 h,"[5]; SD, rat, plasma, iv, 1 mg/kg, Rat (SD), 0.083 hr, terminal, read-out: Plasma concentration, mean",1660 ng/mL
same,concentration at 0.5 h,"[5]; SD, rat, plasma, iv, 1 mg/kg, Rat (SD), 0.500 hr, not a terminal time point (animals 4, 5 and 6)",608 ng/mL
same,concentration at 1 h,"[5]; SD, rat, plasma, iv, 1 mg/kg, Rat (SD), 1 hr, terminal, read-out: Plasma concentration, mean",54.5 ng/mL
same,concentration at 4 h,"[5]; SD, rat, plasma, iv, 1 mg/kg, Rat (SD), 4 hr, terminal, read-out: Plasma concentration, mean",1.37 ng/mL
same,concentration at 8 h,"[5]; SD, rat, plasma, iv, 1 mg/kg, Rat (SD), 8 hr, terminal, read-out: Plasma concentration, mean",1.05 ng/mL
same,concentration at 4 h,"[5]; SD, rat, plasma, iv, 1 mg/kg, Rat, 4.00 hr, terminal, BQL limit 1.00 ng/mL (ADG I-205: 2.00 ng/mL), read-out: Plasma concentration, individual animal",1.37 ng/mL
same,concentration at 8 h,"[5]; SD, rat, plasma, iv, 1 mg/kg, Rat, 8.00 hr, terminal, BQL limit 1.00 ng/mL (ADG I-205: 2.00 ng/mL), read-out: Plasma concentration, individual animal",1 ng/mL
same,half-life at 2 μM,[6],5.5 min
same,half-life at 2 μM,[7],18.7 min
same,"Plasma concentration, individual animal",[8],BQL
same,"Plasma concentration, mean",[9]; 0.25 hr,BQL
same,"Plasma concentration, mean",[9]; 0.5 hr,BQL
same,"Plasma concentration, mean",[9]; 1 hr,BQL
same,"Plasma concentration, mean",[9]; 4 hr,BQL
same,"Plasma concentration, mean",[9]; 8 hr,BQL
same,"Plasma concentration, mean",[9]; 24 hr,BQL
same,"Plasma concentration, individual animal","[9]; Rat, 0.250 hr, BQL limit 1.00 ng/mL",BQL
same,"Plasma concentration, individual animal","[9]; Rat, 0.500 hr, BQL limit 1.00 ng/mL",BQL
same,"Plasma concentration, individual animal","[9]; Rat, 1.00 hr, BQL limit 1.00 ng/mL",BQL
same,"Plasma concentration, individual animal","[9]; Rat, 4.00 hr, BQL limit 1.00 ng/mL",BQL
same,"Plasma concentration, individual animal","[9]; Rat, 8.00 hr, BQL limit 1.00 ng/mL",BQL
same,concentration at 24 h,"[9]; SD, rat, plasma, po, 5 mg/kg, Rat, 24.0 hr, BQL limit 1.00 ng/mL, read-out: Plasma concentration, individual animal",1.18 ng/mL
